{"source": "patent US20060150260A1", "about": "“Genes related to drug resistance” (Northwestern University, priority 2004, published 2006)", "type_in_all_cases": "cell-based, human", "key": {"MCF-7 cells [1]": {"test_system": "MCF-7 cells", "experiment": "Apoptosis check: propidium iodide DNA content (FACS) and DNA ladder", "method": "Cell staining. Propidium iodide (DNA content): cells were permeabilized with cold EtOH, incubated with propidium iodide/RNase staining buffer (BD Bioscience, Calif.) for 15 min at room temperature, and analyzed by flow cytometry.\n(§1) Flow Cytometry was performed using a Beckman Coulter Epics XL-MCL (Beckman, Fla.) with System II v. 3.0 software and CYAN (DakoCytomation, Colo.) and Summit v. 3.3 software."}, "[2]": {"test_system": "B6-containing MCF-7 cells", "experiment": "Mitochondrial mass, MitoFluor 589 staining, flow cytometry", "details": "4OHTAM for 72 hr", "method": "MitoTracker Red CMXRos (mitochondrial membrane potential) and MitoFluor 589 (mitochondrial mass detection): both dyes were obtained from Molecular Probes, Calif., and added to cells (250 nM final concentration) for 25 min at 37° C. in the CO2 incubator. Cells were then trypsinized and analyzed by flow cytometry or by fluorescent microscope.\nas §1\nThe fate of mitochondria was also examined in experiments assessing mitochondrial activity (FIG. 7C). […] The intracellular content of this organelle on a per cell basis remains fairly constant with only insignificant fluctuations (FIG. 7B), indicating a tight control of the number of mitochondria per cell. 1S A population of B6-containing cells treated with 4OHTAM for 72 hr contains approximately 30% of cells with reduced mitochondrial content (67% have normal mitochondrial content), which is close to the distribution of parental MCF-7 cells treated for 48 hr (FIG. 7B). At the same two timepoints mitochondrial activity distributions are vastly different: a separate low-activity peak for MCF-7 and a barely noticeable asymmetry (“shoulder”) for B6-cells (FIG. 7C). The present invention is not limited to a particular mechanism. […]"}, "[3]": {"test_system": "MCF-7 cells infected with cDNA inserts B4, B6, D10, E5", "experiment": "Colony forming assay after 4OHTAM treatment, cDNA (RIG)-containing populations", "method": "(§2) Colony Forming Assay: five hundred cells were plated per 60 mm plate and allowed to recover overnight. […] Treatment continued for 14 days with media replacement every two days; then cells were allowed to recover for two weeks, fixed with alcohol and stained with crystal violet (2% w/v). Colonies (over 150 cells per group) were counted. Experiments were done in triplicate.\n(§3) Resistance was determined by colony-forming assay as described in Materials and Methods: plates were stained, and colonies were counted (FIG. 2B); results of the experiment were plotted (FIG. 2C). […] In heterogeneous populations the level of resistance is lower than in single-cell clones (presence of cells without inserts, different levels of expression, etc), so resistance induced by selected cDNAs in individual cells can be much higher. As selected cDNAs induced resistance to 4OHTAM, they were considered to be resistance-inducing genes (RIGs)."}, "[4]": {"test_system": "GFP-expressing MCF-7 control cells", "experiment": "Colony forming assay after 4OHTAM treatment, GFP control", "details": "7.5 µM of 4OHTAM, 14 days treatment", "method": "as §2, §3"}, "MCF-7 cells [5]": {"test_system": "MCF-7 cells", "experiment": "Cell growth with 4OHTAM", "parameters": "cell growth: dose or concentration left out as unconfirmed", "method": "Cells: MCF-7 (ATCC: HTB-22) cells were grown in Dulbecco's Modified Eagle's medium, 2 mM glutamine, 0.1 mM non-essential amino acids, 10 units/ml of penicillin, 10 μg/ml of streptomycin (all—Invitrogen, Calif.), supplemented with 10% fetal bovine serum (HyClone, Utah), 6 μg/ml of insulin (Sigma, Mo.), 30 μg/ml of fungin, and 10 μg/ml of plasmocin (both—InvivoGen, Calif.). 4-Hydroxytamoxifen (Sigma, Mo.) was used as 10 mM stock solution in ethanol and stored at −20° C.\nTo gain a better understanding of changes induced by the RIGs, cell growth of RIGs-expressing populations was evaluated with and without 4OHTAM (FIG. 3). In drug-free media the proliferation rate of the B4 RIG-expressing cells was at least equal to parental MCF-7 cells or GFP-expressing control, while for B6, D10 and E5 the proliferation rate was higher (FIG. 3A). […] It is contemplated that cessation of growth for parental and control cells reflects terminal damage and initial stages of cellular demise, whereas for RIG E5-expressing cells cessation of growth is a protective response to drug exposure."}}, "data": [{"substance": "4-Hydroxytamoxifen [4OHTAM]", "values": [{"measurement": "DNA fragmentation pattern (DNA ladder)", "setting": "MCF-7 cells [1]; genomic DNA of 4OHTAM-treated cells", "result": "no characteristic DNA fragmentation pattern (DNA ladder) was detected"}, {"measurement": "apoptotic sub-G1 peak in FACS profiles", "setting": "MCF-7 cells [1]; up to 20 μM 4OHTAM", "result": "No evidence was found of a characteristic sub-G1 peak"}, {"measurement": "cells with normal mitochondrial content", "setting": "[2]", "result": 67, "unit": "%"}, {"measurement": "cells with reduced mitochondrial content", "setting": "[2]", "result": "approximately 30%"}, {"measurement": "resistance of cDNA-expressing cells relative to control (EGFP-only) cells", "setting": "[3]; 7.5 μM 4OHTAM, colony-forming assay", "result": "five-six times more resistant"}, {"measurement": "survival of populations, colony formation assay", "setting": "[3]; cDNA-containing populations, 7.5 µM of 4OHTAM, 14 days treatment", "result": "~65", "unit": "%"}, {"measurement": "survival of GFP-expressing control, colony formation assay", "setting": "[4]", "result": "> 10", "unit": "%"}, {"measurement": "cell proliferation", "setting": "MCF-7 cells [5]; 10 mM 4OHTAM, MCF-7 cells", "result": "blocked"}, {"measurement": "cell growth", "setting": "MCF-7 cells [5]; RIGs-containing and parental cells", "result": "inhibited"}]}]}
